Results published in patent US20030175678A1, “Methods for identifying genes regulating desired cell phenotypes” (priority 2001, published 2003).

Assays:
[1] = test system: C. barkleyi suspension culture; assay: Differential induction of catechin accumulation in Crassula barkleyi suspension culture; format: cell-based; details: B49 medium, treated seven days after inoculation, sampled for 17 days
Description: Differential induction of catechin derivatives in the C. barkleyi suspension culture was performed in 250 mL conical flasks containing 100 mL of a secondary metabolite production medium B49 (Gamborg's B5, with 5% sucrose, and no hormones), inoculated with 16 mL of 14 day old suspension culture. The cultures were incubated under low light conditions (approximately 30 lux) at 25° C. for seven days after inoculation. Cultures were then treated using one of each of the following protocols (untreated cultures were also maintained as controls):
(2) Autoclaved aqueous 2,4-D (1 mg/L final concentration) was added;
(4) Filter-sterilized aqueous DL-phenylalanine (200 mg/L) was added;
(6) Filter-sterilized aqueous zeatin (10 μM) was added;
(7) Filter-sterilized aqueous 1-aminocyclopropane-1-carboxylic acid (10 mg/L final concentration) was added;
(8) Filter-sterilized 24-epibrassinolide (1 mg/L final concentration) was added;
(9) Incubation at a temperature of 16° C.; or (10) High light regime (approximately 160 lux).
(§1) Ten milliliter culture samples were taken at regular intervals for 17 days following the day of subculture to B49 medium. All culture samples were centrifuged for five minutes at 4000 rpm, and the cell residue was freeze-dried. Extraction, sample preparation, and HPLC analysis were performed as described in Example 1.

[2] = test system: PAL, CHS, and F3-OH; assay: Quantitative RT-PCR of PAL, CHS and F3-OH transcripts in C. dejecta cells; format: cell-based, Crassula dejecta; details: after 48 hours
Description: Differential induction of mRNA transcripts associated with the synthesis of catechin derivatives in the C. barkleyi suspension culture (as described in Example 2) and the C. dejecta suspension culture (as described in Example 3) were performed in 250 mL conical flasks containing 100 mL of a secondary metabolite production medium B49 (Gamborg's B5, 5% sucrose, no hormones), inoculated with 16 mL of a 14 day old suspension culture (C. barkleyi) or 40 mL of a 21 day old suspension culture (C. dejecta). The cultures were incubated under low light conditions (approximately 30 lux) at 25° C.
Induction of mRNA usually occurs within 48 hours of receipt of an inducing signal. Accordingly, samples were taken at intervals of 2, 4, 6, 10, 15, 24, and 48 hours following the above treatments. Samples, sufficient to give at least 1 mL packed cell volume, were centrifuged for five minutes at 4000 rpm and the supernatant removed. […]
This mixture was incubated at 42° C. for 50 min then denatured at 70° C. for 15 min and stored at −20° C., after a thirty-fold dilution with distilled water. An aliquot of this reaction was then used to quantify the relative abundance of each of the three genes (PAL, CHS, F3-OH) to the invariant one (TBP), using a real time quantification PCR machine (Perkin Elmer 7700) and the previously described oligonucleotides (shown in FIG. 7) in the following conditions: […]

[3] = test system: C. dejecta suspension culture; assay: Differential induction of catechin accumulation in Crassula dejecta suspension culture; format: cell-based
Description: Differential induction of catechin derivatives in the C. dejecta suspension culture was performed in 250 mL conical flasks containing 100 mL of B105 growth medium or 100 mL of a secondary metabolite production medium B49 (Gamborg's B5, with 5% sucrose, and no hormones), inoculated with 40 mL of 21 day old suspension culture. The cultures were incubated under low light conditions (approximately 30 lux) at 25° C. Cultures were treated using one of each of the following protocols:
(1) B105 growth medium (no additions) used as is;
(3) Filter-sterilized aqueous zeatin (10 μM) was added at day 7 to a culture grown on B105 medium;
(4) B49 production medium (no additions) used as is;
as §1, with “(6) Filter-sterilized clofibrate (0.5 mM final concentration) was added at day 7 to a culture grown on B49 medium. Ten” for “Ten”, “milliliters of” for “milliliter”, “to B105 or” for “to”

[4] = test system: terpene cyclase; assay: RT-PCR of terpene cyclase in Ajuga reptans cultures; format: cell-based; details: 24 hours after treatment
Description: To investigate the pattern of regulation of the terpene cyclase identified as described above, primers were synthesized that corresponded to sequence at each end of the RACE fragment. Ajuga reptans cultures were subject to the treatments described above, and RNA collected eight and 24 hours after treatment. RT-PCR was carried out using an […]™ One-Step RT-PCR kit (Clontech Laboratories, Palo Alto, Calif.). […] The primers also appear to be amplifying a constitutive cyclase.

induction of terpene cyclase (RT-PCR) [4]: induced
Structure (SMILES): CC/C=C\CC1C(=O)CCC1CC(=O)OC (centres unmarked) [methyl jasmonate]
catechin biosynthesis and EGCG accumulation [1]: induced catechin biosynthesis and EGCG accumulation | induction of PAL, CHS, and F3-OH genes [2]: at least 6 fold | induction of EGCG and other catechins ([3]; cultures grown on both B105 and B49 media, added at day 7): induced EGCG and other catechins | accumulation of EGCG ([3]; on B49, methyl jasmonate added at day 7): ten-fold
